Results published in patent US11192907B2, “Aminopeptidase A inhibitors and pharmaceutical compositions comprising the same” (QUANTUM GENOMICS, priority 2018, dated 2021).

The compounds below were run against T1, recombinant mouse APA (Mus musculus, UniProt P16406) (assay: Measurement of APA activity in vitro (GluβNa hydrolysis, microplate)). Details: 200 μM Glu-βNa, pH 7.4, 37° C., read-out: In vitro inhibition of aminopeptidase A, IC50 classification.
T1 sequence (P16406 1-945): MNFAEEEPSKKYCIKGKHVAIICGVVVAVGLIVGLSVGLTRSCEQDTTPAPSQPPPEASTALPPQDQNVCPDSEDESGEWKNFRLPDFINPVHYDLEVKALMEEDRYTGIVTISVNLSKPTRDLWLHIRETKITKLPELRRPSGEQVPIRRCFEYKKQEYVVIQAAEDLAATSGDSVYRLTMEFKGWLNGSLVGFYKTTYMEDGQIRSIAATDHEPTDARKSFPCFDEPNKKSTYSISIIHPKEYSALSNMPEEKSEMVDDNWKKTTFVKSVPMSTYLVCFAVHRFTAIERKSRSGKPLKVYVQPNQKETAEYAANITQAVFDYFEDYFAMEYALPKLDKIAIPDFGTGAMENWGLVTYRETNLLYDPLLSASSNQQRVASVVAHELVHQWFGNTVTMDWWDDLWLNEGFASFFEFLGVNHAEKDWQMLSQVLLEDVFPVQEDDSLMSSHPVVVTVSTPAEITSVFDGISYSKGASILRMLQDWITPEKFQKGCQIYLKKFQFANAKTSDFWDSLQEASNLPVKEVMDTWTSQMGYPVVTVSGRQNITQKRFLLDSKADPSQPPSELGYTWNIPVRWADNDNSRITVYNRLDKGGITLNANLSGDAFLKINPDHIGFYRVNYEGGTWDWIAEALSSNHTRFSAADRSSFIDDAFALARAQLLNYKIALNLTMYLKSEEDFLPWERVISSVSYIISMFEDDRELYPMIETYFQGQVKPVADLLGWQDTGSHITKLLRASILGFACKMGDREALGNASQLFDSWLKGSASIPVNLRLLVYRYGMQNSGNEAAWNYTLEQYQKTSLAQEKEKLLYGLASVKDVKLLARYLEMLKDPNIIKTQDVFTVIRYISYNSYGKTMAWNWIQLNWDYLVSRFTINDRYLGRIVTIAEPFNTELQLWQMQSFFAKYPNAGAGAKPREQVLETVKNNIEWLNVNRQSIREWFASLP
Type: biochemical
From the text: In vitro, in the presence of calcium ions, APA hydrolyses a synthetic substrate α-L-glutamyl-β-naphthylamide (GluβNa) to glutamate and β-naphthylamine (βNa). A diazotation reaction in acidic medium makes it possible to reveal the β-naphthylamine by formation of a violet-coloured complex: spectrophotometric measurement then makes it possible to know the amount of complex formed and, by reference to a standard curve produced with increasing concentrations of β-naphthylamine, to deduce the enzymatic activity of the sample.
The reaction takes place at pH 7.4 in 50 mM tris-HCl buffer, in the presence of calcium (4 mM CaCl2)); recombinant mouse APA is incubated at 37° C. in the presence of the substrate (200 μM Glu-βNa) and in the presence or absence of various concentrations of the inhibitor to be tested, in a final volume of 100 μL. The reaction is stopped by adding 10 μL of 3N HCl. A standard curve of β-naphthylamine was prepared in parallel by diazotizing increasing concentrations (up to 0.2 mM) of 2-naphthylamine in 0.1 N HCl.
The following are added to each well: 25 μL of sodium nitrite (NaNO2) (mix, wait 5 minutes at room temperature), 50 μL of ammonium sulfamate (mix, wait 5 minutes at room temperature), then add 25 μL of N-(1-naphthyl) ethylenediamine dihydrochloride (mix, wait for stabilization of the violet colour for approximately 30 minutes at 37° C.).
The absorbance is then measured at 540 nm.

Compound | IC50 [nM]
NC(CCC(=O)O)P(=O)(O)Cc1ccccc1 (stereo not shown) [Example 1, 4-amino-4-[benzyl(hydroxy)phosphoryl]butanoic acid] | 30 to 300
Cc1ccccc1CP(=O)(O)C(N)CCC(=O)O (stereo not shown) [Example 2, 4-amino-4-{hydroxy[(2-methylphenyl)methyl]phosphoryl}butanoic acid] | 30 to 300
Cc1cccc(CP(=O)(O)C(N)CCC(=O)O)c1 (stereo not shown) [Example 3, 4-amino-4-{hydroxy[(3-methylphenyl)methyl]phosphoryl}butanoic acid] | 30 to 300
Cc1ccc(CP(=O)(O)C(N)CCC(=O)O)cc1 (stereo not shown) [Example 4, 4-amino-4-{hydroxy[(4-methylphenyl)methyl]phosphoryl}butanoic acid] | 30 to 300
NC(CCC(=O)O)P(=O)(O)Cc1cc(C(F)(F)F)cc(C(F)(F)F)c1 (stereo not shown) [Example 5, 4-amino-4-({[3,5-bis(trifluoromethyl)phenyl]methyl}(hydroxy)phosphoryl) butanoic acid] | 300 to 10000
NC(CCC(=O)O)P(=O)(O)Cc1ccccc1-c1ccccc1 (stereo not shown) [Example 6, 4-amino-4-[({[1,1′-biphenyl]-2-yl}methyl)(hydroxy)phosphoryl]butanoic acid] | 300 to 10000
NC(CCC(=O)O)P(=O)(O)Cc1cccc(OC(F)(F)F)c1 (stereo not shown) [Example 7, 4-amino-4-[hydroxy({[3-(trifluoromethoxy)phenyl]methyl})phosphoryl]butanoic acid] | 30 to 300
NC(CCC(=O)O)P(=O)(O)Cc1ccc(OC(F)(F)F)cc1 (stereo not shown) [Example 8, 4-amino-4-[hydroxy({[4-(trifluoromethoxy)phenyl]methyl})phosphoryl]butanoic acid] | 30 to 300
CS(=O)(=O)c1ccc(CP(=O)(O)C(N)CCC(=O)O)cc1 (stereo not shown) [Example 9, 4-amino-4-{hydroxy[(4-methanesulfonylphenyl)methyl]phosphoryl}butanoic acid] | 300 to 10000
COc1ccccc1CP(=O)(O)C(N)CCC(=O)O (stereo not shown) [Example 10, 4-amino-4-{hydroxy[(2-methoxyphenyl)methyl]phosphoryl}butanoic acid] | < 30
COc1cccc(CP(=O)(O)C(N)CCC(=O)O)c1 (stereo not shown) [Example 11, 4-amino-4-{hydroxy[(3-methoxyphenyl)methyl]phosphoryl}butanoic acid] | < 30
COc1ccc(CP(=O)(O)C(N)CCC(=O)O)cc1 (stereo not shown) [Example 12, 4-amino-4-{hydroxy[(4-methoxyphenyl)methyl]phosphoryl}butanoic acid] | 30 to 300
N#Cc1cccc(CP(=O)(O)C(N)CCC(=O)O)c1 (stereo not shown) [Example 13, 4-amino-4-{[(3-cyanophenyl)methyl](hydroxy)phosphoryl}butanoic acid] | 30 to 300
N#Cc1ccc(CP(=O)(O)C(N)CCC(=O)O)cc1 (stereo not shown) [Example 14, 4-amino-4-{[(4-cyanophenyl)methyl](hydroxy)phosphoryl}butanoic acid] | 30 to 300
NC(CCC(=O)O)P(=O)(O)Cc1cccc2ccccc12 (stereo not shown) [Example 15, 4-amino-4-{hydroxy[(naphthalen-1-yl)methyl]phosphoryl}butanoic acid] | < 30
NC(CCC(=O)O)P(=O)(O)Cc1ccccc1Oc1ccccc1 (stereo not shown) [Example 16, 4-amino-4-{hydroxy[(2-phenoxyphenyl)methyl]phosphoryl}butanoic acid] | 30 to 300
NC(CCC(=O)O)P(=O)(O)Cc1cccc(Oc2ccccc2)c1 (stereo not shown) [Example 17, 4-amino-4-{hydroxy[(3-phenoxyphenyl)methyl]phosphoryl}butanoic acid] | 30 to 300
NC(CCC(=O)O)P(=O)(O)Cc1ccc(Oc2ccccc2)cc1 (stereo not shown) [Example 18, 4-amino-4-{hydroxy[(4-phenoxyphenyl)methyl]phosphoryl}butanoic acid] | 30 to 300
NC(CCC(=O)O)P(=O)(O)Cc1cccc(-c2ccccc2)c1 (stereo not shown) [Example 19, 4-amino-4-[({[1,1′-biphenyl]-3-yl}methyl)(hydroxy)phosphoryl]butanoic acid] | 30 to 300

Compound | IC50 [nM]
NC(CCC(=O)O)P(=O)(O)Cc1cc(-c2ccccc2)no1 (stereo not shown) [Example 20, 4-amino-4-{hydroxy[(3-phenyl-1,2-oxazol-5-yl)methyl]phosphoryl}butanoic acid] | 300 to 10000
NC(CCC(=O)O)P(=O)(O)Cc1cc(-c2ccccc2)on1 (stereo not shown) [Example 21, 4-amino-4-{hydroxy[(5-phenyl-1,2-oxazol-3-yl)methyl]phosphoryl}butanoic acid] | 30 to 300
Cc1ccccc1CCP(=O)(O)C(N)CCC(=O)O (stereo not shown) [Example 23, 4-amino-4-{hydroxy[2-(2-methylphenyl)ethyl]phosphoryl}butanoic acid] | < 30
Cc1cccc(CCP(=O)(O)C(N)CCC(=O)O)c1 (stereo not shown) [Example 24, 4-amino-4-{hydroxy[2-(3-methylphenyl)ethyl]phosphoryl}butanoic acid] | < 30
Cc1ccc(CCP(=O)(O)C(N)CCC(=O)O)cc1 (stereo not shown) [Example 25, 4-amino-4-{hydroxy[2-(4-methylphenyl)ethyl]phosphoryl}butanoic acid] | < 30
NC(CCC(=O)O)P(=O)(O)CCc1cccc(C(F)(F)F)c1 (stereo not shown) [Example 26, 4-amino-4-[hydroxy({2-[3-(trifluoromethyl)phenyl]ethyl})phosphoryl]butanoic acid] | 30 to 300
CC(C)(CP(=O)(O)C(N)CCC(=O)O)c1ccccc1 (stereo not shown) [Example 27, 4-amino-4-[hydroxy(2-methyl-2-phenylpropyl)phosphoryl]butanoic acid] | 300 to 10000
NC(CCC(=O)O)P(=O)(O)CCc1ccccc1Cl (stereo not shown) [Example 28, 4-amino-4-{[2-(2-chlorophenyl)ethyl](hydroxy)phosphoryl}butanoic acid] | < 30
NC(CCC(=O)O)P(=O)(O)CCc1cccc(Cl)c1 (stereo not shown) [Example 29, 4-amino-4-{[2-(3-chlorophenyl)ethyl](hydroxy)phosphoryl}butanoic acid] | 30 to 300
NC(CCC(=O)O)P(=O)(O)CCc1ccc2ccccc2c1 (stereo not shown) [Example 30, 4-amino-4-{hydroxy[2-(naphthalen-2-yl)ethyl]phosphoryl}butanoic acid] | < 30
NC(CCC(=O)O)P(=O)(O)CCc1cccc2ccccc12 (stereo not shown) [Example 31, 4-amino-4-{hydroxy[2-(naphthalen-1-yl)ethyl]phosphoryl}butanoic acid] | < 30
COc1ccccc1CCP(=O)(O)C(N)CCC(=O)O (stereo not shown) [Example 32, 4-amino-4-{hydroxy[2-(2-methoxyphenyl)ethyl]phosphoryl}butanoic acid] | < 30
COc1cccc(CCP(=O)(O)C(N)CCC(=O)O)c1 (stereo not shown) [Example 33, 4-amino-4-{hydroxy[2-(3-methoxyphenyl)ethyl]phosphoryl} butanoic acid] | < 30
COc1ccc(CCP(=O)(O)C(N)CCC(=O)O)cc1 (stereo not shown) [Example 34, 4-amino-4-{hydroxy[2-(4-methoxyphenyl)ethyl]phosphoryl}butanoic acid] | < 30
NC(CCC(=O)O)P(=O)(O)CCc1ccccc1Oc1ccccc1 (stereo not shown) [Example 35, 4-amino-4-{hydroxy[2-(2-phenoxyphenyl)ethyl]phosphoryl}butanoic acid] | < 30
NC(CCC(=O)O)P(=O)(O)CCc1ccccc1OC1CCCC1 (stereo not shown) [Example 36, 4-amino-4-({2-[2-(cyclopentyloxy)phenyl]ethyl}(hydroxy)phosphoryl) butanoic acid] | < 30
NC(CCC(=O)O)P(=O)(O)CCCc1ccccc1 (stereo not shown) [Example 37, 4-amino-4-[hydroxy(3-phenylpropyl)phosphoryl]butanoic acid] | 30 to 300
NC(CCC(=O)O)P(=O)(O)CCc1ccccc1OC(F)(F)F (stereo not shown) [Example 38, 4-amino-4-[hydroxy({2-[2-(trifluoromethoxy)phenyl]ethyl})phosphoryl]butanoic acid] | < 30
